Source: patent US20240245677A1, “SELECTED COMPOUNDS FOR TARGETED DEGRADATION OF BRD9” (C4 THERAPEUTICS, INC., priority 2021, published 2024)
Like-named read-outs stand apart in the source and are kept apart here.

Target: T1, BRD9 (Homo sapiens, UniProt Q9H8M2)
T1 sequence (Q9H8M2 1-597): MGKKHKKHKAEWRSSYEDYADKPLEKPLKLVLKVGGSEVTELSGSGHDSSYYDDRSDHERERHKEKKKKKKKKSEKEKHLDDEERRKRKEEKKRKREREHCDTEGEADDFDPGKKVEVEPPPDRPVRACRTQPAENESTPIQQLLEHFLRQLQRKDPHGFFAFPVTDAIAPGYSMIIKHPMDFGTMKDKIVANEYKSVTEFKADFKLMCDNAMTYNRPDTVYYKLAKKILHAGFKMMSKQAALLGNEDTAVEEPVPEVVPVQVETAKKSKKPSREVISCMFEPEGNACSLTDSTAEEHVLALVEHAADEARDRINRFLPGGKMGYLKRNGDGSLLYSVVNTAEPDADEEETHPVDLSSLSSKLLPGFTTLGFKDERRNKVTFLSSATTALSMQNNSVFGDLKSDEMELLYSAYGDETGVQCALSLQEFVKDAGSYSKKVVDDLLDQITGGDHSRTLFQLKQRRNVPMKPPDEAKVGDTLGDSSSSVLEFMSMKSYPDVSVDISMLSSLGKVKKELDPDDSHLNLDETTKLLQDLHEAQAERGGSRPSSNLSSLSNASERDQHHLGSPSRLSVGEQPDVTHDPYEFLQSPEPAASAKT
Experiment: BRD9 HiBiT degradation assay in 293T.166 (HEK293T.166) cells
Format: cell-based
Design: endogenously expressing BRD9 with HiBiT fusion tag via CRISPR; host or cells: HEK293T.166 (293T.166, BRD9-HiBiT HEK293, LgBiT by lentivirus)
Protocol: Selected compounds were tested in a BRD9 degradation assay using the HiBit Method.
Dulbecco's modified Eagle medium (DMEM) without phenol red and fetal bovine serum (FBS) were purchased from Gibco (Grand Island, NY, USA). Nano-Glo® HiBiT Lytic Assay System was purchased from Promega (Madison, WI, USA). 293T.166 (BRD9-HiBiT) cell line, endogenously expressing BRD9 with HiBiT fusion tag via CRISPR and ectopically expressing LgBiT tag, was purchased from Promega (Madison, WI, USA). 293T.167 (BRD7-HiBiT) cell line, endogenously expressing BRD7 with HiBiT fusion tag via CRISPR and ectopically expressing LgBiT tag, was purchased from Promega (Madison, WI, USA). 293T.92 (BRD4-HiBiT) cell line, endogenously expressing BRD4 with HiBiT fusion tag via CRISPR and ectopically expressing LgBiT tag, was generated in-house. Cell culture flasks and 384-well microplates were acquired from VWR (Radnor, PA, USA).
BRD9 degradation was determined based on quantification of luminescent signal using Nano-Glo® HiBiT Lytic Assay kit. Test compounds were added to the 384-well plate from a top concentration of 10 μM with 11 points, half log titration in duplicates. 293T.166 cells were added into 384-well plates at a cell density of 10,000 cells per well. The plates were kept at 37° C. with 5% CO2 for 2 hours. BRD7 and BRD4 degradation was similarly determined with 293T.167 cells and 293T.92 cells, respectively. The cells treated in the absence of the test compound were the negative control and the cells without Nano-Glo® HiBiT Lytic reagent were the positive control. After 2-hour incubation, Nano-Glo® HiBiT Lytic Assay reagents were added to the cells. Luminescence was acquired on EnVision® Multilabel Reader (Catalog No. 2104-0010, Perkin Elmer Inc., Dumfries, VA, USA).
This assay evaluates the degradation of BRD9 induced by treatment with Compound 1 or Compound 2 as measured by luminescence using Nano-Glo® HiBiT Lytic Assay System in HEK293 cells CRISPR-edited to endogenously express HiBiT tagged BRD9 and exogenously express LgBiT protein.
Nano-Glo® HiBiT Lytic Assay System was purchased from Promega (Catalog No. N3050, Madison, WI, USA). BRD9-HiBiT HEK293 cells were purchased from Promega (Catalog No. CS302348, Madison, WI, USA). The cells were maintained in Dulbecco's modified Eagle medium (DMEM) without phenol red (Catalog No. 12430112, ThermoFisher Scientific, Waltham, MA, USA) supplemented with 10% fetal bovine serum (FBS) (Catalog No. 16000-044, Gibco, Grand Island, NY, USA) at 37° C. in an atmosphere of 5% CO2 in air. The HiBiT polypeptide tag was introduced into the C-terminus of the endogenous BRD9 locus by CRISPR-Cas9 and the LgBiT protein was introduced via Lentiviral infection to produce the modified HEK293T.166 cell line. The HiBiT polypeptide and LgBiT protein allow reconstitution of NanoBiT enzyme in the cells. The Nano-Glo® HiBiT Lytic Substrate was then added and activated by the NanoBiT enzyme following cell lysis to produce a luminescent signal that is directly proportional to the amount of HiBiT-tagged BRD9.
The HEK293T.166 cells were routinely sub-cultured to maintain cell density between 30-80% confluence, not to exceed 20 passages. Cells were washed with PBS pH 7.4 (Catalog No. 10010049, ThermoFisher Scientific, Waltham, MA, USA), trypsinized for 5 minutes at 37° C., and resuspended in fresh growth media without phenol red. An aliquot was diluted 2× with Trypan Blue solution 0.4% (Catalog No. 15250061, ThermoFisher Scientific, Waltham, MA, USA) and cell count determined. Cell concentration was adjusted with growth media without phenol red to 3.3×10^5 cells/mL.
Compound 1 or Compound 2 was prepared by dissolving neat compounds in DMSO (Catalog No. D8418, Sigma-Aldrich, Inc., St. Louis, MO, USA) to generate 10 mM stock solution and stored at −20° C. […]

COc1cc(-c2cn(C)c(=O)c(C)c2C)cc(OC)c1CN1CC[C@H](N2CCN(c3ccc(N[C@H]4CCC(=O)NC4=O)cc3F)CC2)C(F)(F)C1 [Compound 1, (S)-3-((4-(4-((S)-1-(2,6-dimethoxy-4-(1,4,5-trimethyl-6-oxo-1,6-dihydropyridin-3-yl)benzyl)-3,3-difluoropiperidin-4-yl)piperazin-1-yl)-3-fluorophenyl)amino)-piperidine-2,6-dione]
% BRD9 Remaining Relative to Vehicle Control at 2 hr, Mean (0.010 nM): 92.3%
% BRD9 Remaining Relative to Vehicle Control at 2 hr, Mean (0.032 nM): 96.4%
% BRD9 Remaining Relative to Vehicle Control at 2 hr, Mean (0.100 nM): 91.6%
% BRD9 Remaining Relative to Vehicle Control at 2 hr, Mean (0.315 nM): 86.4%
% BRD9 Remaining Relative to Vehicle Control at 2 hr, Mean (0.997 nM): 76.7%
% BRD9 Remaining Relative to Vehicle Control at 2 hr, Mean (3.15 nM): 51.6%
% BRD9 Remaining Relative to Vehicle Control at 2 hr, Mean (10.0 nM): 21.7%
% BRD9 Remaining Relative to Vehicle Control at 2 hr, Mean (31.7 nM): 7.9%
% BRD9 Remaining Relative to Vehicle Control at 2 hr, Mean (100 nM): 5.0%
% BRD9 Remaining Relative to Vehicle Control at 2 hr, Mean (316 nM): 5.7%
% BRD9 Remaining Relative to Vehicle Control at 2 hr, Mean (999 nM): 4.8%
DC50 (293T.166 cells, 2.0 hours, read-out: HiBiT-Degradation 293T.166 BRD9 2.0 hours (DC50)): < 100 nM
Emax (BRD9-HiBiT, 293T.166 cells, 2 hours, read-out: Mean Emax (%) ± SD): 4.14 ± 1.15%
Dmax (HEK293T.166 cells, 2-hour treatment, read-out: maximal degradation of BRD9): > 95%
DC50 (summary statement, read-out: DC50 against BRD9): 2 to 75 nM
